Reference: PubChem BioAssay (NCI)
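Grown in 96-well plates, cells were treated for 48 hours with each compound at five concentrations. Insufficient inhibition: endpoint recorded as highest concentration tested. Here, GI50 denotes the concentration required for 50% inhibition of growth. TGI denotes the concentration required for complete inhibition of growth.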

Tests used:
Assay in all cases: DTP human tumour cell line panel, 48 h
[1] = tested on: CAKI-1 renal
[2] = tested on: MDA-MB-435
[3] = tested on: HCC-2998 colon
[4] = tested on: SF-539 CNS
[5] = tested on: RPMI-8226 leukemia
[6] = tested on: A549 NSCLC
[7] = tested on: HS 578T breast
[8] = tested on: SK-MEL-5 melanoma
[9] = tested on: SF-295 CNS
[10] = tested on: SK-MEL-28 melanoma
[11] = tested on: MALME-3M melanoma
[12] = tested on: EKVX NSCLC
[13] = tested on: 786-0 renal
[14] = tested on: HT29 colon
[15] = tested on: HOP-62 NSCLC
[16] = tested on: NCI-H460 lung
[17] = tested on: CCRF-CEM leukemia
[18] = tested on: SW-620 colon
[19] = tested on: MCF7 breast
[20] = tested on: DU-145 prostate
[21] = tested on: UO-31 renal
[22] = tested on: NCI/ADR-RES ovarian
[23] = tested on: K-562 leukemia
[24] = tested on: OVCAR-3 ovarian
[25] = tested on: HCT-15 colon
[26] = tested on: UACC-62 melanoma
[27] = tested on: TK-10 renal
[28] = tested on: MDA-MB-231 breast
[29] = tested on: A498 renal
[30] = tested on: HL-60(TB) leukemia
[31] = tested on: U251 CNS
[32] = tested on: SR leukemia
[33] = tested on: SNB-19 CNS
[34] = tested on: LOX IMVI melanoma
[35] = tested on: SNB-75 CNS
[36] = tested on: SN12C renal
[37] = tested on: SF-268 CNS
[38] = tested on: SK-OV-3 ovarian
[39] = tested on: KM12 colon
[40] = tested on: MOLT-4 leukemia
[41] = tested on: COLO 205 colon
[42] = tested on: PC-3 prostate
[43] = tested on: T-47D breast
[44] = tested on: OVCAR-5 ovarian
[45] = tested on: NCI-H226 lung
[46] = tested on: HOP-92 NSCLC
[47] = tested on: SK-MEL-2 melanoma
[48] = tested on: OVCAR-8 ovarian
[49] = tested on: ACHN renal
[50] = tested on: UACC-257 melanoma
[51] = tested on: NCI-H23 lung
[52] = tested on: BT-549 breast
[53] = tested on: OVCAR-4 ovarian
[54] = tested on: HCT-116 colon

CCN1Cc2nc3sc(C)c(C)c3c(=O)n2C=C1C
GI50 [1]: 11.2 µM | TGI [1]: 53.5 µM | GI50 [2]: 6.48 µM | TGI [2]: 39.1 µM | GI50 [3]: 5.19 µM | TGI [3]: 37.8 µM | GI50 [4]: 12.9 µM | TGI [4]: 34.4 µM | GI50 [5]: 2640 nM | TGI [5]: 10.9 µM | GI50 [6]: 38.5 µM | TGI [6]: > 100 µM | GI50 [7]: 1660 nM | TGI [7]: 6.92 µM | GI50 [8]: 5.87 µM | TGI [8]: 51.8 µM | GI50 [9]: 20.2 µM | TGI [9]: > 100 µM | GI50 [10]: 6.65 µM | TGI [10]: 21.3 µM | GI50 [11]: 16.4 µM | TGI [11]: 73.5 µM | GI50 [12]: 21.8 µM | TGI [12]: > 100 µM | GI50 [13]: 16.1 µM | TGI [13]: 66.4 µM | GI50 [14]: 3.9 µM | TGI [14]: 15.8 µM | GI50 [15]: 16.4 µM | TGI [15]: 75.1 µM | GI50 [16]: 40.6 µM | TGI [16]: > 100 µM | GI50 [17]: 2520 nM | TGI [17]: 8.21 µM | GI50 [18]: 2750 nM | TGI [18]: 12.6 µM | GI50 [19]: 3.94 µM | TGI [19]: 53.3 µM | GI50 [20]: 7.7 µM | TGI [20]: 23 µM | GI50 [21]: 5.29 µM | TGI [21]: > 100 µM | GI50 [22]: 5.12 µM | TGI [22]: 79.6 µM | GI50 [23]: 3.35 µM | TGI [23]: 17.8 µM | GI50 [24]: 2750 nM | TGI [24]: 9.74 µM | GI50 [25]: 3.5 µM | TGI [25]: 19 µM | GI50 [26]: 5.83 µM | TGI [26]: 24.7 µM | GI50 [27]: 15.1 µM | TGI [27]: 83.4 µM | GI50 [28]: 8.14 µM | TGI [28]: 24.7 µM | GI50 [29]: 20.3 µM | TGI [29]: > 100 µM | GI50 [30]: 2100 nM | TGI [30]: 6.48 µM | GI50 [31]: 4.23 µM | TGI [31]: > 100 µM | GI50 [32]: 1580 nM | TGI [32]: 8.49 µM | GI50 [33]: 17.9 µM | TGI [33]: > 100 µM | GI50 [34]: 4.64 µM | TGI [34]: 17.1 µM | GI50 [35]: 10.2 µM | TGI [35]: > 100 µM | GI50 [36]: 13.8 µM | TGI [36]: 62.1 µM | GI50 [37]: 5.41 µM | TGI [37]: 36.2 µM | GI50 [38]: 74.1 µM | TGI [38]: > 100 µM | GI50 [39]: 2800 nM | TGI [39]: 14.4 µM | GI50 [40]: 2460 nM | TGI [40]: 8.7 µM | GI50 [41]: 24.4 µM | TGI [41]: > 100 µM | GI50 [42]: 4.07 µM | TGI [42]: > 100 µM | GI50 [43]: 4.17 µM | TGI [43]: > 100 µM | GI50 [44]: 42.3 µM | TGI [44]: > 100 µM | GI50 [45]: 8.17 µM | TGI [45]: 21.9 µM | GI50 [46]: 6.2 µM | TGI [46]: 46.4 µM | GI50 [47]: 21.1 µM | TGI [47]: > 100 µM | GI50 [48]: 4.83 µM | TGI [48]: 25.3 µM | GI50 [49]: 11.5 µM | TGI [49]: > 100 µM | GI50 [50]: 4.56 µM | TGI [50]: 17.6 µM | GI50 [51]: 7.26 µM | TGI [51]: > 100 µM | GI50 [52]: 7.36 µM | TGI [52]: 92.1 µM | GI50 [53]: 11.8 µM | TGI [53]: > 100 µM | GI50 [54]: 1720 nM | TGI [54]: 4.17 µM
